Data as given in patent US20240132484A1, “BROAD SPECTRUM ANTIVIRAL COMPOUNDS TARGETING THE SKI COMPLEX” (priority 2020, published 2024).
Values joined by “and” are separate entries in the source; they are usually repeats but may differ in a detail not shown here. Equal entries are not always repeated. Where two headings read alike, the source gives them in different places.

Key:
cells (nuclei count) = settings: for Relative cell count to DMSO controls, Average 1 μM / Relative cell count to DMSO controls, Average 5 μM / Relative cell count to DMSO controls, Average 10 μM / Relative cell count to DMSO controls, Average 25 μM / Relative cell count to DMSO controls, Average 50 μM: toxicity data, 100=DMSO control; for Toxicity Data, Average, Mean: average of Exp 1-3 (SMW475, SMW477, SMW478); for Relative cell count to DMSO controls, Average (for correlation analysis): average value over the 5 tested concentrations (1 to 50 uM)
SARS2 = format: cell-based, SARS-CoV-2; settings: for Percentage Inhibition Average 1 μM / Screening data (Relative infection to DMSO controls) Average 1 μM: SARS2, 1 μM; for Screening data (Relative infection to DMSO controls) Average 1 μM / Screening data (Relative infection to DMSO controls) Average 5 μM / Screening data (Relative infection to DMSO controls) Average 10 μM / Screening data (Relative infection to DMSO controls) Average 25 μM / Screening data (Relative infection to DMSO controls) Average 50 μM / Average (relative infection to DMSO over the 5 tested concentrations): 100=DMSO control; for Percentage Inhibition Average 5 μM / Screening data (Relative infection to DMSO controls) Average 5 μM: SARS2, 5 μM; for Percentage Inhibition Average 10 μM / Screening data (Relative infection to DMSO controls) Average 10 μM: SARS2, 10 μM; for Percentage Inhibition Average 25 μM / Screening data (Relative infection to DMSO controls) Average 25 μM: SARS2, 25 μM; for Percentage Inhibition Average 50 μM / Screening data (Relative infection to DMSO controls) Average 50 μM: SARS2, 50 μM; for Average (relative infection to DMSO over the 5 tested concentrations): SARS2, average over 1 to 50 uM; for Infection Data, Average, Mean: average of Exp 1-3 (SMW475, SMW477, SMW478)

COC(=O)c1csc(CN(CCN(C)C)Cc2cccs2)c1 [SILCS29]
Relative cell count to DMSO controls, Average 1 μM (cells (nuclei count)): 104.12
Relative cell count to DMSO controls, Average 5 μM (cells (nuclei count)): 110.81
Relative cell count to DMSO controls, Average 10 μM (cells (nuclei count)): 90.99
Relative cell count to DMSO controls, Average 25 μM (cells (nuclei count)): 101.15
Relative cell count to DMSO controls, Average 50 μM (cells (nuclei count)): 67.81
Toxicity Data, Average, Mean (cells (nuclei count); n 9, 1 uM): 104.12%
Toxicity Data, Average, Mean (cells (nuclei count); n 9, 5 uM): 110.81%
Toxicity Data, Average, Mean (cells (nuclei count); n 9, 10 uM): 90.99%
Toxicity Data, Average, Mean (cells (nuclei count); n 9, 25 uM): 101.15%
Toxicity Data, Average, Mean (cells (nuclei count); n 9, 50 uM): 67.81%
Relative cell count to DMSO controls, Average (for correlation analysis) (cells (nuclei count)): 94.98
Percentage Infection Relative to Appropriate DMSO Control with Avg Background Subtraction (SARS2; Exp 1 (SMW475), 5 uM, single well): 1.25% and −0.49% and 2.25%
Percentage Infection Relative to Appropriate DMSO Control with Avg Background Subtraction (SARS2; Exp 1 (SMW475), 10 uM, single well): 57.43% and 82.75% and 79.22%
Percentage Infection Relative to Appropriate DMSO Control with Avg Background Subtraction (SARS2; Exp 1 (SMW475), 25 uM, single well): 13.47% and 21.51% and 26.64%
Percentage Infection Relative to Appropriate DMSO Control with Avg Background Subtraction (SARS2; Exp 1 (SMW475), 50 uM, single well): 13.24% and 10.68% and 10.82%
Percentage Infection Relative to Appropriate DMSO Control with Avg Background Subtraction (SARS2; Exp 2 (SMW477), 1 uM, single well): 96.79% and 118.82% and 112.77%
Percentage Infection Relative to Appropriate DMSO Control with Avg Background Subtraction (SARS2; Exp 2 (SMW477), 5 uM, single well): 84.54% and 117.80% and 116.09%
Percentage Infection Relative to Appropriate DMSO Control with Avg Background Subtraction (SARS2; Exp 2 (SMW477), 10 uM, single well): 78.23% and 124.37% and 115.30%
Percentage Infection Relative to Appropriate DMSO Control with Avg Background Subtraction (SARS2; Exp 2 (SMW477), 50 uM, single well): 2.61% and 6.87% and 8.07%
Percentage Infection Relative to Appropriate DMSO Control with Avg Background Subtraction (SARS2; Exp 3 (SMW478), 1 uM, Greiner Celigo plates): 97.82% and 84.39% and 100.08%
Percentage Infection Relative to Appropriate DMSO Control with Avg Background Subtraction (SARS2; Exp 3 (SMW478), 5 uM, Greiner Celigo plates): 95.72% and 88.47% and 77.81%
Percentage Infection Relative to Appropriate DMSO Control with Avg Background Subtraction (SARS2; Exp 3 (SMW478), 10 uM, Greiner Celigo plates): 99.71% and 91.75% and 106.45%
Percentage Infection Relative to Appropriate DMSO Control with Avg Background Subtraction (SARS2; Exp 3 (SMW478), 50 uM, Greiner Celigo plates): 6.88% and −1.19% and −1.09%
Percentage Inhibition Average 1 μM (SARS2): 15.78%
Screening data (Relative infection to DMSO controls) Average 1 μM (SARS2): 84.22
Percentage Inhibition Average 5 μM (SARS2): 35.17%
Screening data (Relative infection to DMSO controls) Average 5 μM (SARS2): 64.83
Percentage Inhibition Average 10 μM (SARS2): 7.20%
Screening data (Relative infection to DMSO controls) Average 10 μM (SARS2): 92.80
Percentage Inhibition Average 25 μM (SARS2): 67.28%
Screening data (Relative infection to DMSO controls) Average 25 μM (SARS2): 32.72
Percentage Inhibition Average 50 μM (SARS2): 93.68%
Screening data (Relative infection to DMSO controls) Average 50 μM (SARS2): 6.32
Average (relative infection to DMSO over the 5 tested concentrations) (SARS2): 56.18
Infection Data, Average, Mean (SARS2; n 9, 1 uM): 84.22%
Infection Data, Average, Mean (SARS2; n 9, 5 uM): 64.83%
Infection Data, Average, Mean (SARS2; n 9, 10 uM): 92.80%
Infection Data, Average, Mean (SARS2; n 9, 25 uM): 32.72%
Infection Data, Average, Mean (SARS2; n 9, 50 uM): 6.32%

CCCCCCCCNC(=O)C1=C(C)NC(=O)NC1c1ccc(OC)c(OC)c1 (stereo not shown) [SILCS65]
Relative cell count to DMSO controls, Average 1 μM (cells (nuclei count)): 104.64
Relative cell count to DMSO controls, Average 5 μM (cells (nuclei count)): 115.73
Relative cell count to DMSO controls, Average 10 μM (cells (nuclei count)): 98.27
Relative cell count to DMSO controls, Average 25 μM (cells (nuclei count)): 89.35
Relative cell count to DMSO controls, Average 50 μM (cells (nuclei count)): 75.91
Relative cell count to DMSO controls, Average (for correlation analysis) (cells (nuclei count)): 96.78
Percentage Inhibition Average 1 μM (SARS2): 12.85%
Screening data (Relative infection to DMSO controls) Average 1 μM (SARS2): 87.15
Percentage Inhibition Average 5 μM (SARS2): 42.13%
Screening data (Relative infection to DMSO controls) Average 5 μM (SARS2): 57.87
Percentage Inhibition Average 10 μM (SARS2): −8.68%
Screening data (Relative infection to DMSO controls) Average 10 μM (SARS2): 108.68
Percentage Inhibition Average 25 μM (SARS2): −33.09%
Screening data (Relative infection to DMSO controls) Average 25 μM (SARS2): 133.09
Percentage Inhibition Average 50 μM (SARS2): −46.13%
Screening data (Relative infection to DMSO controls) Average 50 μM (SARS2): 146.13
Average (relative infection to DMSO over the 5 tested concentrations) (SARS2): 106.58

CC1=C(C(=O)NCc2ccccc2)C(c2ccc(C)o2)NC(=O)N1 (stereo not shown) [SILCS69]
Relative cell count to DMSO controls, Average 1 μM (cells (nuclei count)): 114.56
Relative cell count to DMSO controls, Average 5 μM (cells (nuclei count)): 113.8
Relative cell count to DMSO controls, Average 10 μM (cells (nuclei count)): 108.32
Relative cell count to DMSO controls, Average 25 μM (cells (nuclei count)): 93.65
Relative cell count to DMSO controls, Average 50 μM (cells (nuclei count)): 79.5
Relative cell count to DMSO controls, Average (for correlation analysis) (cells (nuclei count)): 101.97
Percentage Inhibition Average 1 μM (SARS2): 44.23%
Screening data (Relative infection to DMSO controls) Average 1 μM (SARS2): 55.77
Percentage Inhibition Average 5 μM (SARS2): 29.45%
Screening data (Relative infection to DMSO controls) Average 5 μM (SARS2): 70.55
Percentage Inhibition Average 10 μM (SARS2): 24.51%
Screening data (Relative infection to DMSO controls) Average 10 μM (SARS2): 75.49
Percentage Inhibition Average 25 μM (SARS2): −26.06%
Screening data (Relative infection to DMSO controls) Average 25 μM (SARS2): 126.06
Percentage Inhibition Average 50 μM (SARS2): −48.18%
Screening data (Relative infection to DMSO controls) Average 50 μM (SARS2): 148.18
Average (relative infection to DMSO over the 5 tested concentrations) (SARS2): 95.21

COc1ccc(-c2[nH]ncc2C(=O)NC2CCCCCC2)cc1OC [SILCS60]
Relative cell count to DMSO controls, Average 1 μM (cells (nuclei count)): 111.59
Relative cell count to DMSO controls, Average 5 μM (cells (nuclei count)): 110.17
Relative cell count to DMSO controls, Average 10 μM (cells (nuclei count)): 109.31
Relative cell count to DMSO controls, Average 25 μM (cells (nuclei count)): 96.61
Relative cell count to DMSO controls, Average 50 μM (cells (nuclei count)): 85.19
Relative cell count to DMSO controls, Average (for correlation analysis) (cells (nuclei count)): 102.57
Percentage Inhibition Average 1 μM (SARS2): 20.62%
Screening data (Relative infection to DMSO controls) Average 1 μM (SARS2): 79.38
Percentage Inhibition Average 5 μM (SARS2): 26.35%
Screening data (Relative infection to DMSO controls) Average 5 μM (SARS2): 73.65
Percentage Inhibition Average 10 μM (SARS2): 26.47%
Screening data (Relative infection to DMSO controls) Average 10 μM (SARS2): 73.53
Percentage Inhibition Average 25 μM (SARS2): 1.46%
Screening data (Relative infection to DMSO controls) Average 25 μM (SARS2): 98.54
Percentage Inhibition Average 50 μM (SARS2): −22.52%
Screening data (Relative infection to DMSO controls) Average 50 μM (SARS2): 122.52
Average (relative infection to DMSO over the 5 tested concentrations) (SARS2): 89.52

CC1=C(C(=O)NCC2CCCCC2)C(c2cccs2)NC(=O)N1 (stereo not shown) [SILCS70]
Relative cell count to DMSO controls, Average 1 μM (cells (nuclei count)): 130.04
Relative cell count to DMSO controls, Average 5 μM (cells (nuclei count)): 111.32
Relative cell count to DMSO controls, Average 10 μM (cells (nuclei count)): 104.3
Relative cell count to DMSO controls, Average 25 μM (cells (nuclei count)): 93.9
Relative cell count to DMSO controls, Average 50 μM (cells (nuclei count)): 79.59
Relative cell count to DMSO controls, Average (for correlation analysis) (cells (nuclei count)): 103.83
Percentage Inhibition Average 1 μM (SARS2): 71.98%
Screening data (Relative infection to DMSO controls) Average 1 μM (SARS2): 28.02
Percentage Inhibition Average 5 μM (SARS2): 38.83%
Screening data (Relative infection to DMSO controls) Average 5 μM (SARS2): 61.17
Percentage Inhibition Average 10 μM (SARS2): 10.99%
Screening data (Relative infection to DMSO controls) Average 10 μM (SARS2): 89.01
Percentage Inhibition Average 25 μM (SARS2): −45.91%
Screening data (Relative infection to DMSO controls) Average 25 μM (SARS2): 145.91
Percentage Inhibition Average 50 μM (SARS2): −47.89%
Screening data (Relative infection to DMSO controls) Average 50 μM (SARS2): 147.89
Average (relative infection to DMSO over the 5 tested concentrations) (SARS2): 94.40

COc1ccc(C2NC(=O)NC(C)=C2C(=O)NCC2CCC2)cc1OC (stereo not shown) [SILCS64]
Relative cell count to DMSO controls, Average 1 μM (cells (nuclei count)): 103.13
Relative cell count to DMSO controls, Average 5 μM (cells (nuclei count)): 119.2
Relative cell count to DMSO controls, Average 10 μM (cells (nuclei count)): 92.78
Relative cell count to DMSO controls, Average 25 μM (cells (nuclei count)): 84.89
Relative cell count to DMSO controls, Average 50 μM (cells (nuclei count)): 75.66
Relative cell count to DMSO controls, Average (for correlation analysis) (cells (nuclei count)): 95.13
Percentage Inhibition Average 1 μM (SARS2): 20.42%
Screening data (Relative infection to DMSO controls) Average 1 μM (SARS2): 79.58
Percentage Inhibition Average 5 μM (SARS2): 66.48%
Screening data (Relative infection to DMSO controls) Average 5 μM (SARS2): 33.52
Percentage Inhibition Average 10 μM (SARS2): −11.17%
Screening data (Relative infection to DMSO controls) Average 10 μM (SARS2): 111.17
Percentage Inhibition Average 25 μM (SARS2): −30.68%
Screening data (Relative infection to DMSO controls) Average 25 μM (SARS2): 130.68
Percentage Inhibition Average 50 μM (SARS2): −58.69%
Screening data (Relative infection to DMSO controls) Average 50 μM (SARS2): 158.69
Average (relative infection to DMSO over the 5 tested concentrations) (SARS2): 102.73
